The target in test [1] is T1, p38α kinase (Homo sapiens, UniProt Q16539).
T1 construct: purchased Upstate
Put plainly: p38α assay (ADP release coupled to NADH oxidation). The class given is biochemical. Particulars: p38 kinase IC50 class, Table 1; read-out: p38α inhibition. On the procedure:
The p38α assay employed is based on measurement of ADP released in the reaction of interest through NADH oxidation obtained by coupling with pyruvate kinase and lactate dehydrogenase reactions. The assays were performed in 384-well UV-plates. The final volume was 25 uL prepared from the addition of 2.5 uL compound dissolved in 10% DMSO, 17.5 uL of assay buffer and 5 uL of ATP. Assay buffer contains the following reagents to give final concentration in the assay: 25 mM HEPES, 20 mM 2-glycerophosphate, pH 7.6, 10 mM MgCl2, 0.1 mM sodium orthovanadate, 0.5 mM phosphoenolpyruvate, 0.12 mM NADH, 3.1 mg/ml LDH, 6.67 mg/ml pyruvate kinase, 0.25 mM peptide substrate, 2 mM DTT, 0.005% Tween 80 and 20 nM p38α kinase from Upstate. Test compounds are preincubated with p38α kinase for 60 min and the reaction started by addition of ATP to 0.15 mM final concentration. Reaction rates were measured at 340 nm using SpectraMax plate-reading spectrophotometer for 10 min at 37° C. Inhibition data were analyzed by non-linear least-squares regression using SigmaPlot.

The target of test [2] is human recombinant Jnk2 (Homo sapiens, UniProt P45984). Nature of the test: JNK enzymatic assay (33P incorporation into peptide). Particulars: JNK2 kinase IC50 class, Table 1. The class given is biochemical. On the procedure: In a final reaction volume of 20 μL, 5 nM human recombinant Jnk2 was incubated in the absence or presence of putative JNK inhibitors in increasing concentrations with 25 mM HEPES pH 7.5, 20 mM p-glycerophosphate, 10 mM MgCl2, 0.1 mM sodium orthovanadate, 0.005% Tween® 80, 10 uM [γ-^33P-ATP], 500 μM IPTTPITTTYFFFKKK peptide substrate and 2 mM DTT. The reaction was initiated by the addition of the [g-^33P-ATP]. After incubation for 20 minutes at 30° C., the aliquots were transferred onto P30/GF filtermats (PerkinElmer). Each filtermat washed four times in 100 ml 0.5% phosphoric acid, 0.5 mM pyrophosphate, then twice in 50 ml ethanol, dried and sealed into bag containing 5 ml of OptiPhase “SuperMix” liquid scintillation cocktail (PerkinElmer). Radioactivity incorporated into peptide was quantified on Trilux 1450 Microbeta plate-reader. IC50 values were calculated using SigmaPlot.
Chain of human recombinant Jnk2 (P45984 whole entry): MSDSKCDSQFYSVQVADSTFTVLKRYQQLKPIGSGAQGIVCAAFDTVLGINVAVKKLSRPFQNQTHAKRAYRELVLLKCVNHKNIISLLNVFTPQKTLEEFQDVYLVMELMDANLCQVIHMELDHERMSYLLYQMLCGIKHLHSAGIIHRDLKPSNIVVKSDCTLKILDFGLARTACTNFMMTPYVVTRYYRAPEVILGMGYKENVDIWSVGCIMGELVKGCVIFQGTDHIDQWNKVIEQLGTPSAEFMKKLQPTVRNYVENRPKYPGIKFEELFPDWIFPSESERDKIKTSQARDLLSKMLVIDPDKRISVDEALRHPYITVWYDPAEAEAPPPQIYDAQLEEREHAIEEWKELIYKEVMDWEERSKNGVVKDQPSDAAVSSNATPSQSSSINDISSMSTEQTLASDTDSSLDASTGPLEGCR

Each structure is given as a SMILES string.

T1 sequence (Q16539 whole entry): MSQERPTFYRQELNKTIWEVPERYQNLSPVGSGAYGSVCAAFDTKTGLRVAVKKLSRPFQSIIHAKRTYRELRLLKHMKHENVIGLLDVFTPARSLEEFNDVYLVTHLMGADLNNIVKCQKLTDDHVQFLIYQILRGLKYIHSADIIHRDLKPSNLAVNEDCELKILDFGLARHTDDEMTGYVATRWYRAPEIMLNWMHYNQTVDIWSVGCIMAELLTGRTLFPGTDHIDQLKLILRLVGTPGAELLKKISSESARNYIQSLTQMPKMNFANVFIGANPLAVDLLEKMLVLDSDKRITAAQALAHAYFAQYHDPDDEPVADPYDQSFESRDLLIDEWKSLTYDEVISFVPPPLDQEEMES

Consider `CCOC(=O)c1cc2cnnc(Nc3cc(C(=O)NC4CC4)ccc3OC)n2c1C` [Compound 1, 4-(5-Cyclopropylcarbamoyl-2-methoxy-phenylamino)-6-methyl-pyrrolo[1,2-d][1,2,4]triazine-7-carboxylic acid ethyl ester], for which the IC50 in test [1] and in test [2] was 1000 to 10000 nM each time.

Take `CCOC(=O)c1cc2cnnc(Nc3cc(-c4nnc[nH]4)ccc3C)n2c1C` [Compound 2, 4-[2-Methyl-5-(4H-[1,2,4]triazol-3-yl)-phenylamino]-6-methyl-pyrrolo[1,2-d][1,2,4]triazine-7-carboxylic acid ethyl ester]: the IC50 in test [1] is 1000 to 10000 nM.

As to `CCOC(=O)c1cc2cnnc(Nc3cc(C(=O)NC4CC4)ccc3C)n2c1C` [Compound 3, 4-(5-Cyclopropylcarbamoyl-2-methyl-phenylamino)-6-methyl-pyrrolo[1,2-d][1,2,4]triazine-7-carboxylic acid ethyl ester], the IC50 in test [1] and in test [2] was less than 1000 nM each time.

Turning to `Cc1ccc(C(=O)NC2CC2)cc1Nc1nncc2cc(C(=O)NCc3ccccc3)c(C)n12` [Compound 4, 4-(5-Cyclopropylcarbamoyl-2-methyl-phenylamino)-6-methyl-pyrrolo[1,2-d][1,2,4]triazine-7-carboxylic acid benzylamide], the IC50 in test [1] and in test [2] was less than 1000 nM in each case.

As for `CCOC(=O)Nc1ccc(C)c(Nc2nncc3cc(C(=O)OCC)c(C)n23)c1` [Compound 5, 4-(5-Ethoxycarbonylamino-2-methyl-phenylamino)-6-methyl-pyrrolo[1,2-d][1,2,4]triazine-7-carboxylic acid ethyl ester], the IC50 in test [1] and in test [2] was less than 1000 nM in each case.

On to `CCOC(=O)c1cc2cnnc(Nc3ccc(Cl)cc3)n2c1C` [Compound 6], for which the IC50 in test [1] and in test [2] was 1000 to 10000 nM each time.

Turning to `CNC(=O)c1cc2cnnc(Nc3cc(C(=O)NC4CC4)ccc3C)n2c1C` [Compound 7], the IC50 in test [1] and in test [2] was less than 1000 nM in each case.

In the case of `Cc1ccc(C(=O)NC2CC2)cc1Nc1nncc2cc(C(=O)NC3CC3)c(C)n12` [Compound 8], the IC50 is less than 1000 nM in test [1] and 1000 to 10000 nM in test [2].

In the case of `CCNC(=O)c1ccc(C)c(Nc2nncc3cc(C(=O)OCC)c(C)n23)c1` [Compound 9], the IC50 in test [1] and in test [2] was 1000 to 10000 nM throughout.

`CCOC(=O)c1cc2cnnc(Nc3ccc(C(=O)OC)cc3)n2c1C` [Compound 10]: the IC50 in test [2] is 1000 to 10000 nM.

As to `CCOC(=O)c1cc2cnnc(Nc3cccc(C(=O)NC4CC4)c3)n2c1C` [Compound 11], the IC50 in test [1] and in test [2] was 1000 to 10000 nM throughout.

Consider `CCOC(=O)c1cc2cnnc(Nc3cc(C(=O)Nc4ccccc4)ccc3C)n2c1C` [Compound 12], for which the IC50 in test [1] and in test [2] was 1000 to 10000 nM throughout.

Regarding `CCOC(=O)c1cc2cnnc(Nc3cc(-c4ncco4)ccc3C)n2c1C` [Compound 13], the IC50 in test [2] was in the range of 1000 to 10000 nM.

In the case of `CCOC(=O)c1cc2cnnc(Nc3cc(NC(=O)OC(C)C)ccc3C)n2c1C` [Compound 14], the IC50 in test [1] and in test [2] was 1000 to 10000 nM in each case.

In the case of `CCOC(=O)c1cc2cnnc(Nc3ccccc3)n2c1C` [Compound 15], the IC50 in test [1] and in test [2] was 1000 to 10000 nM each time.

On to `CCOC(=O)c1cc2cnnc(Nc3ccccc3C)n2c1C` [Compound 16], for which the IC50 in test [1] and in test [2] was 1000 to 10000 nM throughout.

Turning to `CCOC(=O)c1cc2cnnc(Nc3cccc(C(=O)O)c3)n2c1C` [Compound 17], in test [2], the IC50 was 1000 to 10000 nM.

On to `CCOC(=O)c1cc2cnnc(Nc3cc(C(=O)O)ccc3C)n2c1C` [Compound 18], for which the IC50 in test [1] and in test [2] was 1000 to 10000 nM throughout.

Consider `CCOC(=O)c1cc2cnnc(Nc3cc(NC(C)=O)ccc3C)n2c1C` [Compound 19], for which the figures for the IC50 in test [1] and in test [2] were greater than 10000 nM and 1000 to 10000 nM, respectively.

As for `CCOC(=O)c1cc2cnnc(Nc3cc(C(=O)NCc4ccccc4)ccc3C)n2c1C` [Compound 20], the IC50 in test [1] and in test [2] was 1000 to 10000 nM in each case.

As to `CCOC(=O)c1cc2cnnc(Nc3cc(C(=O)NC(C)C)ccc3C)n2c1C` [Compound 21], the IC50 in test [2] is greater than 10000 nM.

Take `CCOC(=O)c1cc2cnnc(Nc3cc(C(=O)N4CCOCC4)ccc3C)n2c1C` [Compound 22]: the IC50 in test [2] is greater than 10000 nM.

`CCOC(=O)c1cc2cnnc(Nc3cc(C(N)=O)ccc3C)n2c1C` [Compound 23]: the IC50 in test [2] is greater than 10000 nM.

As to `CCOC(=O)c1cc2cnnc(Nc3cc(N)ccc3C)n2c1C` [Compound 24], the IC50 in test [1] and in test [2] was greater than 10000 nM in each case.

(Values after patent US7855288B2, “Pyrrolo [1,2-d] [1,2-4] triazine as inhibitors of c-Jun N terminal kinases (JNK) and p-38 kinases” (Novartis AG, priority 2004, dated 2010).)
